Test system: Calu-3 cells
Experiment: Analysis of cell viability (CellTiter-Glo)
Assay type: cell-based, human
Details: 24 h, Supplementary Fig. S6
Experimental: Cells incubated with a medium containing DMSO (solvent) served as controls. Cell viability was assessed using the CellTiter-Glo® Luminescent Cell Viability Assay (Promega) according to the manufacturer’s instructions. Data normalization was performed as follows: cell viability in the absence of inhibitor (DMSO-only samples) was set as 100% and the relative viability of cells incubated with the respective inhibitor concentrations was calculated.

SMILES: CC(C)(C)NC(=O)N1CCN(C(=O)N2C(=O)C(CCCNC(=N)N)C2C(=O)O)CC1 (stereo not shown) [BMS-262084]
- cytotoxicity at concentrations used for preincubation: noncytotoxic

From PMC12307812 (Nature Communications, 2025)
